{
  "source": "patent US20040209777A1",
  "about": "“Agents for improving the qualities of fruits/grains” (priority 2001, published 2004)",
  "key": {"Japanese pear “Kousui” [1]": {"test_system": "Japanese pear “Kousui”", "conditions": "observed on February 5", "experimental": "The flower bud differentiation rate was surveyed by observing winter buds with the unaided eye for each of long fruiting branches and short fruiting branches for every section on February 5 of the next year. The flower bud differentiation rate was calculated as a proportion of the flower bud number (mixed flower buds) to the total winter bud number, provided that the last-year branch was regarded as 1 unit, to which branch a long fruiting branch or a short fruiting branch attached."}, "Japanese pear “Kousui” [2]": {"test_system": "Japanese pear “Kousui”", "experimental": "Regarding the sugar concentration of fruits, the sugar content (Brix) of the fruits harvested on August 24 of the year. The content of the individual sugar species was measured by selecting 10 fruits from each section to obtain fruit juices prepared by pressing the fruits, filtering each juice with a membrane filter having a 0.45 μm diameter, and then, quantifying the sugar content for every sugar species by HPLC (Column: “Shim-pack SCR-101C”, Column temperature: 80° C., Solvent: water (1 mL/min); and Detector: RI)."}, "Japanese pear “Kousui” [3]": {"test_system": "Japanese pear “Kousui”", "conditions": "average Score (+3 to −3) of sprayed product, non-sprayed product = Score 0", "experimental": "In this connection, the scores of the sprayed product shown in Table 5 were counted by the following way. I.e., this was carried out in a paired comparison method where the “non-sprayed product” was assigned to Score 0 (control), and the “sprayed product” was scored by 7-class evaluation consisting of Scores +3, +2, +1, 0, −1, −2, and −3, employing a plurality of panels. Next, average values of the results of scoring the “sprayed product” by the plurality of panels were calculated and the average values were assigned to the Scores of the “sprayed product” in Table 5."}, "Japanese pear “Kousui” [4]": {"test_system": "Japanese pear “Kousui”", "remark": "listed apart in the source"}, "[5]": {"test_system": "adult grape tree (cultivar Cabernet sauvignon)", "experimental": "The aqueous proline solution, which had been prepared by dissolving the high purity proline as described above into water to provide a 200 ppm concentration and adding 10 mL of “ATLOX BI” (wetting agent) thereto, was sprayed on the adult grape tree (cultivar Cabernet sauvignon) with an interval of 15 days during the period from the end of June to the middle of September in a year, which is the véraison period as the fruit growing period.\nThe sprayed amount was a certain amount to allow the solution to drop down from the leaf surfaces. The control section was assigned to another non-sprayed adult tree. Both the test section and the control section were harvested on October 25 in that year to analyze sweetness and a red-colored state. Sweetness was evaluated in terms of the sugar content (Brix) of a juice prepared by mixing and pulverizing seed-removed fruits and pericarps. Colored state (red) was evaluated by measuring a light absorbance of the juice at 522 nm.\nAccording to the market evaluation for a grape cultivar for red wine and a red grape cultivar such as Kyohou, the stronger the coloration (red) of the pericarp is, the better the quality is."}, "[6]": {"conditions": "pear fruit juice, harvested on August 24, HPLC, n = 10"}, "[7]": {"conditions": "grape juice, harvested October 25, 200 ppm proline sprayed every 15 days"}},
  "note": "Like-named read-outs stand apart in the source and are kept apart here.",
  "data": [
    {"smiles": "O=C(O)[C@@H]1CCCN1", "note": "[proline, L-proline]", "values": [
      {"measurement": "flower bud differentiation rate", "setting": "Japanese pear “Kousui” [1]; long fruiting branch, Total", "result": 39.83, "unit": "%"},
      {"measurement": "flower bud differentiation rate", "setting": "Japanese pear “Kousui” [1]; long fruiting branch, Tree No. 1", "result": 40.60, "unit": "%"},
      {"measurement": "flower bud differentiation rate", "setting": "Japanese pear “Kousui” [1]; long fruiting branch, Tree No. 2", "result": 39.05, "unit": "%"},
      {"measurement": "flower bud differentiation rate", "setting": "Japanese pear “Kousui” [1]; short fruiting branch, Total", "result": 39.38, "unit": "%"},
      {"measurement": "flower bud differentiation rate", "setting": "Japanese pear “Kousui” [1]; short fruiting branch, Tree No. 1", "result": 40.83, "unit": "%"},
      {"measurement": "flower bud differentiation rate", "setting": "Japanese pear “Kousui” [1]; short fruiting branch, Tree No. 2", "result": 37.93, "unit": "%"},
      {"measurement": "Fructose content in the fruits", "setting": "Japanese pear “Kousui” [2]; [6]", "result": 56.74, "unit": "mg/mL"},
      {"measurement": "Glucose content in the fruits", "setting": "Japanese pear “Kousui” [2]; [6]", "result": 18.67, "unit": "mg/mL"},
      {"measurement": "Sorbitol content in the fruits", "setting": "Japanese pear “Kousui” [2]; [6]", "result": 28.83, "unit": "mg/mL"},
      {"measurement": "Sucrose content in the fruits", "setting": "Japanese pear “Kousui” [2]; [6]", "result": 62.09, "unit": "mg/mL"},
      {"measurement": "Total individual sugar contents in the fruits", "setting": "Japanese pear “Kousui” [2]; [6]", "result": 166.12, "unit": "mg/mL"},
      {"measurement": "Sugar content (Brix)", "setting": "Japanese pear “Kousui” [2]; pear fruits harvested on August 24, 200 ppm proline sprayed", "result": "11.7 ± 0.1", "unit": "Brix"},
      {"measurement": "pericarp color", "setting": "Japanese pear “Kousui” [2]; pear fruits harvested on August 24, proline-treated section", "result": "somewhat red pericarp"},
      {"measurement": "Apparent color", "setting": "Japanese pear “Kousui” [3]", "result": 0.06},
      {"measurement": "Comprehensive evaluation", "setting": "Japanese pear “Kousui” [3]", "result": 0.74},
      {"measurement": "Hardness", "setting": "Japanese pear “Kousui” [3]", "result": "−0.13"},
      {"measurement": "Juiciness", "setting": "Japanese pear “Kousui” [3]", "result": 0.02},
      {"measurement": "Preferableness of sourness", "setting": "Japanese pear “Kousui” [3]", "result": "−0.06"},
      {"measurement": "Preferableness of sweetness", "setting": "Japanese pear “Kousui” [3]", "result": 0.43},
      {"measurement": "Preferableness of whole aroma", "setting": "Japanese pear “Kousui” [3]", "result": 0.64},
      {"measurement": "Preferableness of whole feeling upon eating", "setting": "Japanese pear “Kousui” [3]", "result": 0.31},
      {"measurement": "Preferableness of whole flavor", "setting": "Japanese pear “Kousui” [3]", "result": 0.50},
      {"measurement": "Preferableness of whole taste", "setting": "Japanese pear “Kousui” [3]", "result": 0.61},
      {"measurement": "Strength of sourness", "setting": "Japanese pear “Kousui” [3]", "result": "−0.19"},
      {"measurement": "Strength of sweetness", "setting": "Japanese pear “Kousui” [3]", "result": 0.95},
      {"measurement": "Strength of whole aroma", "setting": "Japanese pear “Kousui” [3]", "result": 0.26},
      {"measurement": "Strength of whole flavor", "setting": "Japanese pear “Kousui” [3]", "result": 0.57},
      {"measurement": "Strength of whole taste", "setting": "Japanese pear “Kousui” [3]", "result": 0.79},
      {"measurement": "Tongue feeling", "setting": "Japanese pear “Kousui” [3]", "result": "−0.19"},
      {"measurement": "Unripe flavor", "setting": "Japanese pear “Kousui” [3]", "result": "−0.41"},
      {"measurement": "drug damage caused by spraying", "setting": "Japanese pear “Kousui” [4]; Japanese pear “Kousui”, 200 ppm proline sprayed on leaves", "result": "any drug damage caused by spraying has not been observed"},
      {"measurement": "Harvested number of pears", "setting": "Japanese pear “Kousui” [4]; Total of all fruit sizes, Total of harvest days, 200 ppm proline sprayed on leaves", "result": 638},
      {"measurement": "Harvested number of pears", "setting": "Japanese pear “Kousui” [4]; Total of all fruit sizes, harvest day August 18, 200 ppm proline sprayed on leaves", "result": 130},
      {"measurement": "Harvested number of pears", "setting": "Japanese pear “Kousui” [4]; Total of all fruit sizes, harvest day August 21, 200 ppm proline sprayed on leaves", "result": 185},
      {"measurement": "Harvested number of pears", "setting": "Japanese pear “Kousui” [4]; Total of all fruit sizes, harvest day August 24, 200 ppm proline sprayed on leaves", "result": 323},
      {"measurement": "Harvested number of pears", "setting": "Japanese pear “Kousui” [4]; fruit size 2L, Total of harvest days, 200 ppm proline sprayed on leaves", "result": 115},
      {"measurement": "Harvested number of pears", "setting": "Japanese pear “Kousui” [4]; fruit size 2L, harvest day August 18, 200 ppm proline sprayed on leaves", "result": 33},
      {"measurement": "Harvested number of pears", "setting": "Japanese pear “Kousui” [4]; fruit size 2L, harvest day August 21, 200 ppm proline sprayed on leaves", "result": 46},
      {"measurement": "Harvested number of pears", "setting": "Japanese pear “Kousui” [4]; fruit size 2L, harvest day August 24, 200 ppm proline sprayed on leaves", "result": 36},
      {"measurement": "Harvested number of pears", "setting": "Japanese pear “Kousui” [4]; fruit size 3L, Total of harvest days, 200 ppm proline sprayed on leaves", "result": 233},
      {"measurement": "Harvested number of pears", "setting": "Japanese pear “Kousui” [4]; fruit size 3L, harvest day August 18, 200 ppm proline sprayed on leaves", "result": 46},
      {"measurement": "Harvested number of pears", "setting": "Japanese pear “Kousui” [4]; fruit size 3L, harvest day August 21, 200 ppm proline sprayed on leaves", "result": 64},
      {"measurement": "Harvested number of pears", "setting": "Japanese pear “Kousui” [4]; fruit size 3L, harvest day August 24, 200 ppm proline sprayed on leaves", "result": 123},
      {"measurement": "Harvested number of pears", "setting": "Japanese pear “Kousui” [4]; fruit size 4L, Total of harvest days, 200 ppm proline sprayed on leaves", "result": 160},
      {"measurement": "Harvested number of pears", "setting": "Japanese pear “Kousui” [4]; fruit size 4L, harvest day August 18, 200 ppm proline sprayed on leaves", "result": 25},
      {"measurement": "Harvested number of pears", "setting": "Japanese pear “Kousui” [4]; fruit size 4L, harvest day August 21, 200 ppm proline sprayed on leaves", "result": 32},
      {"measurement": "Harvested number of pears", "setting": "Japanese pear “Kousui” [4]; fruit size 4L, harvest day August 24, 200 ppm proline sprayed on leaves", "result": 103},
      {"measurement": "Harvested number of pears", "setting": "Japanese pear “Kousui” [4]; fruit size 5L, Total of harvest days, 200 ppm proline sprayed on leaves", "result": 31},
      {"measurement": "Harvested number of pears", "setting": "Japanese pear “Kousui” [4]; fruit size 5L, harvest day August 18, 200 ppm proline sprayed on leaves", "result": 0},
      {"measurement": "Harvested number of pears", "setting": "Japanese pear “Kousui” [4]; fruit size 5L, harvest day August 21, 200 ppm proline sprayed on leaves", "result": 4},
      {"measurement": "Harvested number of pears", "setting": "Japanese pear “Kousui” [4]; fruit size 5L, harvest day August 24, 200 ppm proline sprayed on leaves", "result": 27},
      {"measurement": "Harvested number of pears", "setting": "Japanese pear “Kousui” [4]; fruit size L, Total of harvest days, 200 ppm proline sprayed on leaves", "result": 55},
      {"measurement": "Harvested number of pears", "setting": "Japanese pear “Kousui” [4]; fruit size L, harvest day August 18, 200 ppm proline sprayed on leaves", "result": 19},
      {"measurement": "Harvested number of pears", "setting": "Japanese pear “Kousui” [4]; fruit size L, harvest day August 21, 200 ppm proline sprayed on leaves", "result": 18},
      {"measurement": "Harvested number of pears", "setting": "Japanese pear “Kousui” [4]; fruit size L, harvest day August 24, 200 ppm proline sprayed on leaves", "result": 18},
      {"measurement": "Harvested number of pears", "setting": "Japanese pear “Kousui” [4]; fruit size M, Total of harvest days, 200 ppm proline sprayed on leaves", "result": 20},
      {"measurement": "Harvested number of pears", "setting": "Japanese pear “Kousui” [4]; fruit size M, harvest day August 18, 200 ppm proline sprayed on leaves", "result": 0},
      {"measurement": "Harvested number of pears", "setting": "Japanese pear “Kousui” [4]; fruit size M, harvest day August 21, 200 ppm proline sprayed on leaves", "result": 11},
      {"measurement": "Harvested number of pears", "setting": "Japanese pear “Kousui” [4]; fruit size M, harvest day August 24, 200 ppm proline sprayed on leaves", "result": 9},
      {"measurement": "Harvested number of pears", "setting": "Japanese pear “Kousui” [4]; fruit size S, Total of harvest days, 200 ppm proline sprayed on leaves", "result": 24},
      {"measurement": "Harvested number of pears", "setting": "Japanese pear “Kousui” [4]; fruit size S, harvest day August 18, 200 ppm proline sprayed on leaves", "result": 7},
      {"measurement": "Harvested number of pears", "setting": "Japanese pear “Kousui” [4]; fruit size S, harvest day August 21, 200 ppm proline sprayed on leaves", "result": 10},
      {"measurement": "Harvested number of pears", "setting": "Japanese pear “Kousui” [4]; fruit size S, harvest day August 24, 200 ppm proline sprayed on leaves", "result": 7},
      {"measurement": "ripening of fruits (fruit number for every harvest day)", "setting": "Japanese pear “Kousui” [4]; proline-treated section vs control section", "result": "fruits ripened earlier as a tendency"},
      {"measurement": "Colored degree (OD at 522 nm)", "setting": "[5]; [7]", "result": 0.14, "unit": "OD at 522 nm"},
      {"measurement": "Sugar content (Brix)", "setting": "[5]; [7]", "result": 20.3, "unit": "Brix"},
      {"measurement": "increment of anthocyanin content in the juice", "setting": "[5]; grape juice, proline-sprayed section vs control section", "result": "about 20%"},
      {"measurement": "difference in the size of fruits", "setting": "[5]; grape, proline-sprayed section vs control section", "result": "No difference"}
    ]}
  ]
}
